Experimental data taken from US12702676B2, “Fosfomycin dosing regimens” (priority 2017, dated 2026).

How the values were obtained:
[1] = test system: baseline bacterial pathogen in cUTI or AP; assay: ZEUS Phase 2/3 noninferiority trial, efficacy at TOC in hospitalized adults; format: in vivo, human
Description: Oral step-down therapy was prohibited (FIG. 4).
A post-hoc analysis using pulsed-field gel electrophoresis (PFGE) was performed to molecularly type all baseline and TOC pathogens (both treatment arms), in order to confirm microbiological eradication/persistence; a total of 20 post-baseline pathogens were identified as unique, unrelated strains compared to baseline.

[2] = ZEUS Phase 2/3 trial, safety (adverse events)
[3] = Bacteremia, m-MITT (N1 19 ZTI-01, 13 P-T)
[4] = CE-TOC (N1 199 ZTI-01, 196 P-T)
[5] = ME-TOC (N1 155 ZTI-01, 145 P-T)
[6] = Original Analysis, ME-TOC (N1 155 ZTI-01, 145 P-T)
[7] = Original Analysis, m-MITT (N1 184 ZTI-01, 178 P-T)
[8] = Post-hoc Analysis Using PFGE Typing, ME-TOC (N1 155 ZTI-01, 145 P-T)
[9] = Post-hoc Analysis Using PFGE Typing, m-MITT (N1 184 ZTI-01, 178 P-T)
[10] = SIRS, m-MITT (N1 62 ZTI-01, 52 P-T)
[11] = m-MITT (N1 184 ZTI-01, 178 P-T)
[12] = MITT Safety Population (n = 233 ZTI-01, n = 231 P-T)

Substance: piperacillin/tazobactam [P-T]
- Clinical Response at TOC: Eradication [1, 3]: 10 (76.9%) n (%)
- Clinical Response at TOC: Indeterminate [1, 3]: 0 (0%) n (%)
- Clinical Response at TOC: Persistence [1, 3]: 3 (23.1%) n (%)
- Overall Response at TOC: Eradication [1, 3]: 5 (38.5%) n (%)
- Overall Response at TOC: Indeterminate [1, 3]: 0 (0%) n (%)
- Overall Response at TOC: Persistence [1, 3]: 8 (61.5%) n (%)
- Per-patient Microbiological Response at TOC: Eradication [1, 3]: 6 (46.2%) n (%)
- Per-patient Microbiological Response at TOC: Indeterminate [1, 3]: 0 (0%) n (%)
- Per-patient Microbiological Response at TOC: Persistence [1, 3]: 7 (53.8%) n (%)
- Clinical Response at TOC: Cure [1, 4]: 182 (92.9%) n (%)
- Clinical Response at TOC: Failure [1, 4]: 14 (7.1%) n (%)
- Clinical Response at TOC: Cure [1, 5]: 135 (93.1%) n (%)
- Clinical Response at TOC: Failure [1, 5]: 10 (6.9%) n (%)
- Clinical Response at TOC: Cure ([1]; MITT (N1 233 ZTI-01, 231 P-T)): 212 (91.8%) n (%)
- Clinical Response at TOC: Failure ([1]; MITT (N1 233 ZTI-01, 231 P-T)): 16 (6.9%) n (%)
- Clinical Response at TOC: Indeterminate ([1]; MITT (N1 233 ZTI-01, 231 P-T)): 3 (1.3%) n (%)
- Microbiological Response at TOC: Eradication [1, 6]: 86 (59.3%) n (%)
- Microbiological Response at TOC: Persistence [1, 6]: 59 (40.7%) n (%)
- Microbiological Response at TOC: Eradication [1, 7]: 100 (56.2%) n (%)
- Microbiological Response at TOC: Indeterminate [1, 7]: 9 (5.1%) n (%)
- Microbiological Response at TOC: Persistence [1, 7]: 69 (38.8%) n (%)
- Microbiological Response at TOC: Eradication [1, 8]: 93 (64.1%) n (%)
- Microbiological Response at TOC: Persistence [1, 8]: 52 (35.9%) n (%)
- Microbiological Response at TOC: Eradication [1, 9]: 107 (60.1%) n (%)
- Microbiological Response at TOC: Indeterminate [1, 9]: 9 (5.1%) n (%)
- Microbiological Response at TOC: Persistence [1, 9]: 62 (34.8%) n (%)
- Clinical Response at TOC: Eradication [1, 10]: 48 (92.3%) n (%)
- Clinical Response at TOC: Indeterminate [1, 10]: 2 (3.8%) n (%)
- Clinical Response at TOC: Persistence [1, 10]: 2 (3.8%) n (%)
- Overall Response at TOC: Eradication [1, 10]: 39 (75.0%) n (%)
- Overall Response at TOC: Indeterminate [1, 10]: 2 (3.8%) n (%)
- Overall Response at TOC: Persistence [1, 10]: 11 (21.2%) n (%)
- Patient Microbiological response at TOC: Eradication [1, 10]: 40 (76.9%) n (%)
- Patient Microbiological response at TOC: Indeterminate [1, 10]: 2 (3.8%) n (%)
- Patient Microbiological response at TOC: Persistence [1, 10]: 10 (19.2%) n (%)
- Clinical Response at TOC: Cure [1, 11]: 163 (91.6%) n (%)
- Clinical Response at TOC: Failure [1, 11]: 12 (6.7%) n (%)
- Clinical Response at TOC: Indeterminate [1, 11]: 3 (1.7%) n (%)
- overall success rates at TOC ([1]; m-MITT population, clinical cure plus microbiologic eradication, 6 g ZTI-01 q8h or 4.5 g P-T q8h IV): 54.5%
- overall success rates using unique pathogen strains typed by PFGE ([1]; post-hoc analysis, m-MITT, TOC): 57.3%
- Any AEs [2, 12]: 74 (32.0%) n (%)
- Any TEAEs [2, 12]: 74 (32.0%) n (%)
- Drug-related SAE [2, 12]: 1 (0.4%) n (%)
- Drug-related TEAEs [2, 12]: 32 (13.9%) n (%)
- SAEs [2, 12]: 6 (2.6%) n (%)
- Serious TEAEs leading to study drug discontinuation [2, 12]: 1 (0.4%) n (%)
- TEAEs leading to study drug discontinuation [2, 12]: 6 (2.6%) n (%)
- TEAEs: Mild [2, 12]: 49 (21.2%) n (%)
- TEAEs: Moderate [2, 12]: 38 (16.5%) n (%)
- TEAEs: Severe [2, 12]: 4 (1.7%) n (%)
- SAE related to study drug (1 in each treatment group) ([2]; in vivo): renal insufficiency
